According to ChEMBL document CHEMBL4339239, “A Cytotoxic Indole Characterized by Incorporation of a Unique Carbon-Nitrogen Skeleton and Two Pentacyclic Corynanthean Alkaloids Incorporating a Substituted Tetrahydrofuranone Ring from Kopsia arborea” (J Nat Prod, 2019):

System: HT-29
Assay: Cytotoxicity in human HT-29 cells assessed as inhibition of cell growth incubated for 72 hrs by MTT assay
Assay type: functional, cell-based
Settings: HT-29, 72 h

Compound	IC50
C=C1c2[nH]c3ccccc3c2C[C@H]2[N@]3CC[C@]12/C(=C\C)C3	6.2 µM
C[C@H](O)[C@@]12CN3CCc4c([nH]c5ccccc45)[C@@H]3C[C@@H]1C(=O)CO2	> 30 µM
